These results are taken from patent US20040014028A1, “Method for determination of protective epitopes for vaccination, diagnosis and vaccine quality control” (Wolf Biotech, priority 2002, published 2004).

Test [1] relates to anti-peptide S2-affinity purified antibodies. Nature of the test: Synthetic peptide ELISA on maleimide-activated plates with anti-peptide S2-affinity purified antibodies. It is filed as binding, swine. Particulars: for recognition by S2 affinity purified antibodies in ELISA: synthetic peptides bound to MBS coated plates; for ELISA signal (OD) with anti-peptide S2 affinity-purified antibodies: synthetic peptide bound to ELISA plate. The procedure: (§1) In FIG. 7, there is shown the reactivity of anti peptides-affinity purified antibodies to synthetic peptides bound to MBS coated ELISA plates. Results are expressed as corrected OD405 (OD tested peptide-OD irrelevant peptide P7, Table 1).
(§2) Several deduced peptides and variations of them were synthesized using solid phase technology and Fmoc standart chemistry. To perform ELISAs with these synthetic peptides, they were diluted in PBS pH 6.8 to a final concentration of 50 μg/ml, and then were used to coat Reacti-Bind Maleimide-Activated Plates (Pierce, Rockford, Ill.) for 5 hours at room temperature. Remaining maleimide groups were blocked by a 1-hour incubation with cysteine-HCl 10 μg/ml diluted in PBS pH 6.8. An extra blocking step was carried out by incubating the plate with PBS containing 10% milk. Sera or affinity-purified antibodies were added in different dilutions and incubated for 1 hour at room temperature.
(§3) Based on the previous results, anti-epitope A and anti-epitope B antibodies were affinity purified from a pool of precipitated antibodies with a SN titer of 1:512 using Keyhole-limpet hemocianine (KLH)-conjugated peptides coupled to CNBr-activated Sepharose as ligand as it is known in the art. R4N/R1N-affinity purified antibodies recognized peptides R4N, peptide R1N and peptide S1. All these peptides contain an (A/V)LVN motif.
On the technique in general: ELISA stands for enzyme-linked immunosorbent assay.

Test [2] has as its system R4N/R1N-affinity purified antibodies. Nature of the test: Synthetic peptide ELISA on maleimide-activated plates with R4N/R1N-affinity purified antibodies. It is filed as binding, swine. Conditions: synthetic peptides bound to MBS coated plates. The procedure:
as §1, §2, §3

The subject of test [3] is swine neutralizing serum. Kind of test: Synthetic peptide ELISA with swine anti-PRRSV neutralizing serum. Conditions: NS from different immunized swine. The format is binding. As to the method: (§4) In FIG. 6 there is show the reactivity of Monoclonal antibody ISU25-C1 and swine anti-PRRSV hyperimmune sera to synthetic peptides bound to MBS coated ELISA plates. Results are expressed as corrected Optical density (OD) at 405 nm (OD405): (OD tested peptide-OD irrelevant peptide P7, Table 1). SN titer was determined against PRRSV Iowa strain. ELISA s/p ratio was determined as the difference in the optical density (OD) of the test serum between viral and control antigens divided by the difference in the OD of the positive reference between viral and control antigens. Serums 3, 5, 6 y 8 are from PRRSV-hyperimmunized pigs, serum 19 is a negative control, ISU 25-C1 and ISU 19A1 (Yang, L et al, Arch. Virol. 145:1599-1619, 2000) are anti-PRRSV neutralizing and non-neutralizing monoclonal antibodies respectively.
as §2

Test [4] deals with anti-peptide S2-affinity purified antibodies. Kind of test: Inhibition by synthetic peptides of binding of anti-peptide S2-affinity purified antibodies to phage clone S2-4. The arrangement: species or system swine. Conditions: serial five-fold dilutions of peptide. The procedure: In FIG. 8, there is shown the inhibition by synthetic peptides of the binding of anti-peptide S2-affinity purified antibodies to phage clone S2-4. Serial five-fold dilutions of synthetic peptides S2 (filled squares), S3 (X) or irrelevant peptide P7(filled circle) were used. Results are expressed as the percentage of the signal obtained with anti-peptide S2 affinity purified antibodies in wells to which no peptides were added. Values are the average of four readings.
This stresses the importance of motif SHF in the composition of epitope B. Anti-peptide S2 affinity-purified antibodies, recognized to a similar extent peptides S2 (OD: 0.336) and S6 (OD: 0.369), confirming that residues H^38, Q^40, I^42, Y^43 and N^44 constitute the core of epitope B.

The test system of test [5] is Monoclonal antibody ISU25-C1. Kind of test: Synthetic peptide ELISA with monoclonal antibody ISU25-C1. The format is binding, mouse. As to the method: as §4
Several deduced peptides and variations of them were synthesized using solid phase technology and Fmoc standart chemistry. To perform ELISAs with these synthetic peptides, they were diluted in PBS pH 6.8 to a final concentration of 50 μg/ml, and then were used to coat Reacti-Bind Maleimide-Activated Plates (Pierce, Rockford, Ill.) for 5 hours at room temperature. Remaining maleimide groups were blocked by a 1-hour incubation with cysteine-HCl 10 μg/ml diluted in PBS pH 6.8. An extra blocking step was carried out by incubating the plate with PBS containing 10% milk. […]

For test [6], the system named is Monoclonal antibody ISU25-C1. Nature of the test: Competition ELISA: inhibition by synthetic peptides of binding of monoclonal antibody ISU25-C1 to PRRSV-coated strips. The arrangement: species or system mouse. Conditions: peptide concentration 333 μM. The source says:
In FIG. 5 there is shown the inhibition by synthetic peptides of the binding of monoclonal antibody ISU25C1 (solid lines) or monoclonal antibody ISU19-A1 (dofted lines) to PRRSV in ELISA. Serial five-fold dilutions of synthetic peptide S4 were used (filled squares). Unrelated peptide P7 was used with monoclonal antibody ISU25C1 as a negative control (filled circles). Results are expressed as the percentage of the anti PRRSV-specific signal obtained with each monoclonal antibody in wells to which no peptides were added. Values are the average of four readings.
To perform competition assays, several dilutions of peptide S4 and irrelevant peptide […] (shown in Table 1) were incubated with Monoclonal antibody ISU25-C1 for 1.5 hours at room temperature. Then, the antibody-peptide mix was added to PRRSV-coated ELISA strips (IDDEX Lab., Inc; Westbrook, Me.) for 45 minutes.

Test [7] concerns swine anti-PRRSV NS. Kind of test: Phage-ELISA with swine anti-PRRSV neutralizing serum. It is filed as binding. The procedure: (§5) In FIG. 4 there is shown the reactivity of swine sera and monoclonal antibodies to selected cloned phages. Results are expressed as corrected OD405 (OD of selected phage-OD unselected phage library NS: serum from pig #6 with a neutralizing titer >64 and ELISA s/p ratio 1.053 NNS: serum from pig #5 with a neutralizing titer <4 and ELISA s/p ratio 0.652.
(§6) To detect peptides on the coat of phages, individual clones shown in FIG. 3 were propagated for 4.5 hours in E. coli ER2738 and then they were purified by two precipitations with PEG 8000. […] phages were added to each well of a Immulon 2HB (Dynex Technologies Inc, Chantilly, Va.) in sodium bicarbonate 0.1 M pH 8.6, and incubated for 16 hours at room temperature in a humidified chamber. Plates were blocked with PBS containing 10% milk for three hours at room temperature. Swine sera or Monoclonal antibody from the tissue culture supernatant were preadsorbed in PBS containing 10% non-fat milk added with 100 μg/ml of E. coli proteins. In addition, 10^10 pfu/ml of non-selected phages were added to the antibodies to reduce background caused by anti M-13 activity found in animal sera. The plates were washed six times with PBS 0.05% Tween-20 and the peroxidase-conjugated secondary antibody (1:500) was added for 30 minutes at 37 C. […] The results were read in a spectrophotometer at 405 nm.

Test [8] concerns sera from hyperimmunized pigs. Nature of the test: Phage-ELISA with sequential sera from hyperimmunized pigs. The format is binding, swine. Particulars: early sera (20 days pi), ELISA positive, negative or low SN titer. As to the method:
Epitopes A and B are represented by phage clones 01 and S2-4 (FIG. 1), respectively. ELISA s/p ratio was determined as the difference in the optical density (OD) of the test serum between viral and control antigens divided by the difference in the OD of the positive reference between viral and control antigens.
as §6, with “proteins.” for “proteins. In addition, 10^10 pfu/ml of non-selected phages were added to the antibodies to reduce background caused by anti M-13 activity found in animal sera. The plates were washed six times with PBS 0.05% Tween-20 and the peroxidase-conjugated secondary antibody (1:500) was added for 30 minutes at 37 C.”
Anti-PRRSV neutralizing antibodies appear late after infection and they are mainly directed against GP5. To determine a correlation between time post-infection and epitope recognition, we evaluated sera from several pigs at two different times of the hyperimmunization protocol as shown in FIG. 9.

Test [9] has as its system Monoclonal antibody ISU25-C1. Kind of test: Phage-ELISA with monoclonal antibody ISU25-C1. It is filed as binding, mouse. As to the method: as §5, §6
Test [10] concerns swine anti-PRRSV NNS. Nature of the test: Phage-ELISA with swine anti-PRRSV non-neutralizing serum. The format is binding. The procedure: as §5, §6

ALVNIPISNNLAC [peptide R4N]: the “recognition by S2 affinity purified antibodies in ELISA” value in [1] was “did not recognize”. Moreover, the “recognition by R4N/R1N-affinity purified antibodies in ELISA” value in test [2] is listed as “recognized”. Moreover, in test [3], the “recognition by swine neutralizing serum in peptide ELISA” value (from here on “recognition by swine neutralizing serum”) is recorded as “recognized”.
Regarding “SGSGANNSSSSGSGSIYNC [peptide S3, peptide S2 with motif SHF replaced by GSG]”, the “recognition by S2 affinity purified antibodies in ELISA” value in [1] is recorded as “did not recognize”. For the same sequence, in [3], the “recognition by swine neutralizing serum” value is given as “completely abrogated”. Besides, the “inhibition of the binding of anti-peptide S2-affinity purified antibodies to clone S2-4” value in [4] is reported as “inhibited the binding”.
Take “SGSGANNSSSSHFQSIYNC [peptide S2, GP5 residues 27-44 with residues 27-30 changed to SGSG]”: in [5], the “recognition by Monoclonal antibody ISU25-C1 in peptide ELISA” value was “does not recognize”. For the same sequence, in test [1], the “ELISA signal (OD) with anti-peptide S2 affinity-purified antibodies” value is given as 0.336 OD and the “recognition by S2 affinity purified antibodies in ELISA” value was “recognized”. Besides, the “recognition by R4N/R1N-affinity purified antibodies in ELISA” value in test [2] is recorded as “did not recognize”. Besides, the “recognition by swine neutralizing serum” value in test [3] is “still recognized”. The “inhibition of the binding of anti-peptide S2-affinity purified antibodies to clone S2-4” value in test [4] is “inhibited to a greater extent than peptide S3”.
For the sequence SGSGANSNSSSHLQLIYNLTLCELC [S6], the “ELISA signal (OD) with anti-peptide S2 affinity-purified antibodies” value in test [1] came to 0.369 OD.
Consider “SGSGSNNSSSSAC [peptide ΔR1N, R1N with residues 27-30 VLVN changed to irrelevant motif SGSG]”, for which the “recognition by R4N/R1N-affinity purified antibodies in ELISA” value in [2] is “did not recognize”. Also, the “recognition by swine neutralizing serum” value in [3] was “abrogated”.
For “SHITSYPAYFWC [peptide S4, mimotope for ISU25-C1]”, in test [5], the “recognition by Monoclonal antibody ISU25-C1 in peptide ELISA” value is on record as “recognized”. Moreover, in [6], the “inhibition of the binding of Monoclonal antibody ISU25-C1 to PRRSV” value was 60%. Further, the “recognition by swine neutralizing serum” value in [3] was “do not recognize”.
Turning to “VLVNANNSSSSHFQSIYNC [peptide S1, residues 27 to 43 of GP5 of IA 97-7895, contains motifs VLVN and HXXXIYN]”, in test [1], the “recognition by S2 affinity purified antibodies in ELISA” value was “recognized”. Moreover, the “recognition by R4N/R1N-affinity purified antibodies in ELISA” value in [2] is given as “recognized”. Besides, in test [3], the “recognition by swine neutralizing serum” value is recorded as “strongly recognized”.
With “VLVNSNNSSSSAC [peptide R1N, aminoacids 27-38 of the GP5 of PRRSV IA 97-7895 isolate]”, the “recognition by S2 affinity purified antibodies in ELISA” value in test [1] is given as “did not recognize”. Also, the “recognition by R4N/R1N-affinity purified antibodies in ELISA” value in test [2] was “recognized”. Further, the “recognition by swine neutralizing serum” value in test [3] is on record as “recognized”.
YKNTHLDLIYNA [phage clone S2-4]: the “recognition of phage-displayed peptide by swine anti-PRRSV neutralizing serum (NS)” value in [7] was “strongly recognized”. Further, in test [8], the “reactivity of sera obtained shortly after the beginning of the immunization” value is “very weakly”. In test [9], the “recognition of phage-displayed peptide by Monoclonal antibody ISU25-C1” value is listed as “not by swine non-neutralizing serum or by monoclonal antibody ISU25-C1”. In addition, the “recognition of phage-displayed peptide by swine anti-PRRSV non-neutralizing serum (NNS)” value in [10] was “not by swine non-neutralizing serum”.
